Experimental findings from ChEMBL document CHEMBL3608278 (J Med Chem, 2015) are described below.

Bridge positions count the residues as written; N and C are the ends. Square brackets hold non-standard residues; d marks the D form. Peptide text beside a SMILES is read from it. 1Nal = N[C@@H](Cc1cccc2ccccc12)C(=O)O

Assay [1] concerns the target T1, Potassium voltage-gated channel subfamily A member 3 (Homo sapiens, UniProt P22001). The assay is described as follows: cell-based. Also noted: species or system Blood.
Assay [2] deals with T1, Potassium voltage-gated channel subfamily A member 3. Also noted: species or system Blood.
The target is the same in assay [3]. In kind it is cell-based, CHO-K1.

T1 sequence (P22001 whole entry): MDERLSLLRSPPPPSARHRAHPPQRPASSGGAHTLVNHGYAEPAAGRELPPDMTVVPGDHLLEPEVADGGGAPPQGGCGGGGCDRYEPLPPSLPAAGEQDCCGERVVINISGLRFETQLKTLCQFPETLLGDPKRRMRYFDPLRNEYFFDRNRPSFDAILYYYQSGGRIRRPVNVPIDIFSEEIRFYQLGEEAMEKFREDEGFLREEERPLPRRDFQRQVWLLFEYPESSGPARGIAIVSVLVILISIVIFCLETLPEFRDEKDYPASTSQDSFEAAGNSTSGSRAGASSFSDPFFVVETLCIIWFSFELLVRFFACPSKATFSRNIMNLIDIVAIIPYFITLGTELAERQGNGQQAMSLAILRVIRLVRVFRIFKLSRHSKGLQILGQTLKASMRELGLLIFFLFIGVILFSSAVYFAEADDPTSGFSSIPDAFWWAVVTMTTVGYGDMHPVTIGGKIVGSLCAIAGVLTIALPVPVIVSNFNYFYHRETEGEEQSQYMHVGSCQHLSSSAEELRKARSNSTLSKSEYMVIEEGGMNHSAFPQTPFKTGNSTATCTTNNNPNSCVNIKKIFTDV

With `CC[C@H](C)[C@@H]1NC(=O)[C@@H](NC(=O)[C@H](CO)NC(=O)[C@@H](N)CCCNC(=N)N)CSSC[C@@H](C(=O)O)NC(=O)[C@H]([C@@H](C)O)NC(=O)CNC(=O)[C@@H]2CSSC[C@@H]3NC(=O)[C@H](CCC(N)=O)NC(=O)[C@H](Cc4cccc5ccccc45)NC(=O)[C@H](C)NC(=O)[C@H]([C@@H](C)O)NC(=O)[C@H](CSSC[C@H](NC(=O)[C@H](Cc4ccccc4)NC(=O)[C@H](CO)NC(=O)[C@H](CC(C)C)NC(=O)[C@H](CCCNC(=N)N)NC(=O)[C@H](Cc4ccc(O)cc4)NC(=O)[C@H](CCCCN)NC(=O)[C@H](CCSC)NC(=O)[C@H](CO)NC(=O)[C@H](C)NC(=O)[C@H](CCCCN)NC3=O)C(=O)N[C@@H](CCCNC(=N)N)C(=O)N[C@@H](CCCCN)C(=O)N[C@@H]([C@@H](C)O)C(=O)N2)NC(=O)[C@H](CCCNC(=N)N)NC(=O)[C@H](CO)NC(=O)[C@H](CCCCN)NC(=O)[C@@H]2CCCN2C(=O)[C@H]([C@@H](C)CC)NC(=O)[C@H]([C@@H](C)O)NC(=O)[C@H](CC(=O)O)NC1=O` (H-RSCIDTIPKSRCTA[1Nal]QCKASMKYRLSFCRKTCGTC-OH; disulfide 3-35, 12-28, 17-32), the IC50 came out at 0.184 nM in assay [1], 0.291 nM in assay [2] and 0.073 nM in assay [3].
In the same order, the values of `CC[C@H](C)[C@@H]1NC(=O)[C@@H](NC(=O)[C@H](CO)NC(=O)[C@@H](N)CCCNC(=N)N)CSSC[C@@H](C(=O)O)NC(=O)[C@H]([C@@H](C)O)NC(=O)CNC(=O)[C@@H]2CSSC[C@@H]3NC(=O)[C@H](CCC(N)=O)NC(=O)[C@H](Cc4ccccc4)NC(=O)[C@H](CCC(=O)O)NC(=O)[C@H]([C@@H](C)O)NC(=O)[C@H](CSSC[C@H](NC(=O)[C@H](Cc4ccccc4)NC(=O)[C@H](CO)NC(=O)[C@H](CC(C)C)NC(=O)[C@H](CCCNC(=N)N)NC(=O)[C@H](Cc4ccc(O)cc4)NC(=O)[C@H](CCCCN)NC(=O)[C@H](CCSC)NC(=O)[C@H](CO)NC(=O)[C@H](Cc4cnc[nH]4)NC(=O)[C@H](CCCCN)NC3=O)C(=O)N[C@@H](CCCNC(=N)N)C(=O)N[C@@H](CCCCN)C(=O)N[C@@H]([C@@H](C)O)C(=O)N2)NC(=O)[C@H](CCCNC(=N)N)NC(=O)[C@H](CO)NC(=O)[C@H](CCCCN)NC(=O)[C@@H]2CCCN2C(=O)[C@H]([C@@H](C)CC)NC(=O)[C@H]([C@@H](C)O)NC(=O)[C@H](Cc2cccc3ccccc23)NC1=O` (H-RSCI[1Nal]TIPKSRCTEFQCKHSMKYRLSFCRKTCGTC-OH; disulfide 3-35, 12-28, 17-32) are 0.036 nM, 0.132 nM and 0.11 nM.
Take `CC[C@H](C)[C@@H]1NC(=O)[C@@H](NC(=O)[C@H](CO)NC(=O)[C@@H](N)CCCNC(=N)N)CSSC[C@@H](C(=O)O)NC(=O)[C@H]([C@@H](C)O)NC(=O)CNC(=O)[C@@H]2CSSC[C@@H]3NC(=O)[C@H](CCC(N)=O)NC(=O)[C@H](Cc4ccccc4)NC(=O)[C@H](CCCCN)NC(=O)[C@H]([C@@H](C)O)NC(=O)[C@H](CSSC[C@H](NC(=O)[C@H](Cc4ccccc4)NC(=O)[C@H](CO)NC(=O)[C@H](CC(C)C)NC(=O)[C@H](CCCNC(=N)N)NC(=O)[C@H](Cc4ccc(O)cc4)NC(=O)[C@H](CCCCN)NC(=O)[C@H](CCSC)NC(=O)[C@H](CO)NC(=O)[C@H](Cc4cnc[nH]4)NC(=O)[C@H](CCCCN)NC3=O)C(=O)N[C@@H](CCCNC(=N)N)C(=O)N[C@@H](CCCCN)C(=O)N[C@@H]([C@@H](C)O)C(=O)N2)NC(=O)[C@H](CCCNC(=N)N)NC(=O)[C@H](CO)NC(=O)[C@H](CCCCN)NC(=O)[C@@H]2CCCN2C(=O)[C@H]([C@@H](C)CC)NC(=O)[C@H]([C@@H](C)O)NC(=O)[C@H](Cc2cccc3ccccc23)NC1=O` (H-RSCI[1Nal]TIPKSRCTKFQCKHSMKYRLSFCRKTCGTC-OH; disulfide 3-35, 12-28, 17-32): the values for the IC50 in assay [1], in assay [2] and in assay [3] were 0.075 nM, 0.201 nM and 0.073 nM, respectively.
